The test system of one assay is Maize. As to the kind of experiment: Pre-emergence test (Example B2), tolerance of useful plant. It is filed as in vivo. From the text:
(§1) The test plants are sown in plastics pots in standard soil. Directly after sowing the test compounds are applied by spraying, separately or in admixture, in the form of an aqueous suspension of the test compounds (Formulation Example F8, c) and d)) or in the form of an emulsion concentrate (Formulation Example F1, d)) in 500 l of water/ha. The rates of application conform to the optimum concentrations ascertained under field conditions and greenhouse conditions. The test plants are then cultivated in the greenhouse under optimum conditions. After 34 days' (Tables B2 to B5) and 41 days' (Table B6) test duration, the test is evaluated (% action, 100 % = plants have died, 0 % = no phytotoxic action). From 61 to 80 % (especially from 81 to 100 %) phytotoxicity indicates good to very good herbicidal action in weeds; from 0 to 15 % (especially from 0 to 5 %) phytotoxicity indicates good to very good tolerance in useful plants.

The next assay has as its system Euphorbia. The assay is described as follows: Pre-emergence test (Example B2). It is filed as in vivo.
Source text: (§2) The expected herbicidal action E for a given combination of two herbicides can be calculated as follows (see COLBY, S.R., "Calculating synergistic and antagonistic response of herbicide combinations", Weeds 15, pages 20-22, 1967): E = X +(Y • (100 - X))/(100) [formula]
(§3) In the above formula: X = percentage growth inhibition in the case of treatment with the compound of formula A at a rate of application of p kg per hectare compared with the untreated control (= 0 %). Y = percentage herbicidal action in the case of treatment with one of the mixing partners at a rate of application of q kg per hectare compared with the untreated control. E = Expected herbicidal action (percentage herbicidal action compared with the untreated control) after treatment with the compounds of formulae A and the mixing partners at a rate of application of p + q kg of active ingredient per hectare.
as §1
(§4) Test plants: abutilon, bidens, euphorbia, ipomoea, sesbamia, xanthium, rottboellia, sida, Sorghum bicolor.

Another assay concerns Abutilon. As to the kind of experiment: Pre-emergence test (Example B2). It is filed as in vivo.
Source text: as §2, §3, §1, §4

Another assay has as its system Ipomoea. The assay is described as follows: Pre-emergence test (Example B2). The assay is classed as in vivo.
Source text: as §2, §3, §1, §4

A further assay concerns Sida. The assay is described as follows: Pre-emergence test (Example B2). It is filed as in vivo.
Source text: as §2, §3, §1, §4

Another assay concerns Bidens. As to the kind of experiment: Pre-emergence test (Example B2). It is filed as in vivo. Particulars: 34 days.
Source text: as §2, §3, §1, §4

For another assay, the system named is Rottboellia. As to the kind of experiment: Pre-emergence test (Example B2). It is filed as in vivo.
Source text: as §2, §3, §1, §4

For another assay, the system named is Sesbania. As to the kind of experiment: Pre-emergence test (Example B2). It is filed as in vivo. The following applies: 34 days.
Source text: as §2, §3, §1, §4

The subject of another assay is Xanthium. The assay is described as follows: Pre-emergence test (Example B2). It is filed as in vivo. Particulars: 34 days.
Source text: as §2, §3, §1, §4

For another assay, the system named is Sorghum bic. The assay is described as follows: Pre-emergence test (Example B2). The assay is classed as in vivo, Sorghum bicolor. The following applies: 1000 g active ingredient/ha, 41 days.
Source text: as §2, §3
The test plants are sown in plastics pots in standard soil. Directly after sowing the test compounds are applied by spraying, separately or in admixture, in the form of an aqueous suspension of the test compounds (Formulation Example F8, c) and d)) or in the form of an emulsion concentrate (Formulation Example F1, d)) in 500 l of water/ha. […] After 34 days' (Tables B2 to B5) and 41 days' (Table B6) test duration, the test is evaluated (% action, 100 % = plants have died, 0 % = no phytotoxic action). […]

The next assay deals with Echinochloa. As to the kind of experiment: Post-emergence test (Example B1). Particulars: 24 days. It is filed as in vivo.
Source text: as §2, §3
(§5) The test plant seeds are grown to the 4- to 6-leaf stage under greenhouse conditions in plastics pots. The culture substrate used is a standard soil. At the 4- to 6-leaf stage the herbicides are applied separately and in admixture to the test plants. The test compounds are applied in the form of an aqueous suspension (Formulation Example F8, c)) in 500 l of water/ha. The rates of application conform to the optimum concentrations ascertained under field conditions and greenhouse conditions. Evaluation of the tests is carried out after 24 days. The following linear scale is used as a measure (% action): • 100 % = plants have died • 50 % = moderate action • 0 % = no phytotoxic action (as untreated control).
(§6) Test plants: brachiaria, cyperus, digitaria, echinochloa, panicum.

Another assay concerns Digitaria. As to the kind of experiment: Post-emergence test (Example B1). It is filed as in vivo. Particulars: 100 g active ingredient/ha, 24 days.
Source text: as §2, §3, §5, §6

The subject of a further assay is Panicum. The assay is described as follows: Post-emergence test (Example B1). It is filed as in vivo. The following applies: 100 g active ingredient/ha, 24 days.
Source text: as §2, §3, §5, §6

The subject of assay [1] is Brachiaria. As to the kind of experiment: Post-emergence test (Example B1). The assay is classed as in vivo. The following applies: 24 days.
Source text: as §2, §3, §5, §6

The test system of assay [2] is Brachiaria. As to the kind of experiment: Pre-emergence test (Example B2). It is filed as in vivo. Particulars: 34 days.
Source text: as §2, §3, §1

The mark [3] stands for this setting: 250 g active ingredient/ha, 34 days.
Setting [4] is: 500 g active ingredient/ha, 34 days.
Setting [5] is: 1000 g active ingredient/ha, 34 days.
The mark [6] stands for this setting: 125 g active ingredient/ha, 34 days.
Setting [7] is: 125 g active ingredient/ha, 41 days.
[8] abbreviates: 250 g active ingredient/ha, 41 days.
The mark [9] stands for this setting: 500 g active ingredient/ha, 41 days.
Setting [10] is: 1000 g active ingredient/ha, 41 days.
Setting [11] is: 150 g active ingredient/ha, 34 days.
Setting [12] is: 300 g active ingredient/ha, 34 days.
Setting [13] is: 600 g active ingredient/ha, 34 days.

`CCc1cccc(C)c1N(C(=O)CCl)C(C)COC` (racemic) [Met.rac., metolachlor]: the “Herbicidal activity, Useful plant: Maize” value in the assay with Maize (setting [3]), in the assay with Maize (setting [4]) and in the assay with Maize (setting [5]) was 0% each time. The “Herbicidal activity, Weed: Euphorbia” value in the assay on Euphorbia (setting [4]) is on record as 0%. Besides, the “Herbicidal activity, Weed: Abutilon” value in the assay on Abutilon (setting [4]) and with Abutilon (setting [5]) was 20% throughout. In the assay with Ipomoea (setting [5]), the “Herbicidal activity, Weed: Ipomoea” value is listed as 0%. The “Herbicidal activity, Weed: Sida” value in the assay on Sida (setting [3]) is listed as 0%; in the assay on Sida (setting [4]), 50%. In the assay on Bidens (1000 g active ingredient/ha), the “Herbicidal activity, Weed: Bidens” value was 30%. The “Herbicidal activity, Weed: Rottboellia” value in the assay on Rottboellia (setting [5]) came out at 0%. The “Herbicidal activity, Weed: Sesbania” value in the assay on Sesbania (1000 g active ingredient/ha) is 60%.
For `CCNc1nc(Cl)nc(NC(C)C)n1` [Atra, atrazine], the “Herbicidal activity, Useful plant: Maize” value with Maize (setting [6]), in the assay with Maize (setting [3]) and in the assay with Maize (setting [4]) was 0% in each case. The “Herbicidal activity, Weed: Euphorbia” value with Euphorbia (setting [6]) amounted to 0%. In addition, the entries for the “Herbicidal activity, Weed: Abutilon” value in the assay with Abutilon (setting [6]) and with Abutilon (setting [4]) were 0% and 98%, respectively. Further, the entries for the “Herbicidal activity, Weed: Ipomoea” value with Ipomoea (setting [6]) and in the assay with Ipomoea (setting [3]) were 0% and 70%, respectively. Further, the “Herbicidal activity, Weed: Xanthium” value with Xanthium (250 g active ingredient/ha) came to 0%; with Xanthium (500 g active ingredient/ha), 95%. For the same compound, in the assay on Bidens (125 g active ingredient/ha), the “Herbicidal activity, Weed: Bidens” value is given as 60%.
On to `COCC(C)N(C(=O)CCl)c1c(C)csc1C` (stereo not drawn) [Dime, dimethenamid], for which the “Herbicidal activity, Weed: Sorghum bic.” value in the assay with Sorghum bic. stood at 80%. Further, the “Herbicidal activity, Useful plant: Maize” value with Maize (setting [7]) came out at 0%; in the assay with Maize (setting [8]), 0%; in the assay on Maize (setting [9]), 0%; in the assay with Maize (setting [10]) it was 20%. Further, in the assay with Euphorbia (setting [9]), the “Herbicidal activity, Weed: Euphorbia” value worked out at 30%. Besides, the “Herbicidal activity, Weed: Abutilon” value in the assay with Abutilon (setting [8]) is 10%. In addition, the “Herbicidal activity, Weed: Ipomoea” value with Ipomoea (setting [10]) amounted to 0%. For the same compound, the “Herbicidal activity, Weed: Sida” value in the assay on Sida (setting [8]) stood at 40%; in the assay with Sida (setting [9]) it was 85%; with Sida (setting [10]), 95%. Moreover, the “Herbicidal activity, Weed: Rottboellia” value in the assay on Rottboellia (setting [7]) was determined as 20%.
`O=C(O)CNCP(=O)(O)O` [Gly, glyphosate]: the “Herbicidal activity, Weed: Echinochloa” value in the assay with Echinochloa (200 g active ingredient/ha) was 0%; with Echinochloa (400 g active ingredient/ha), 20%. In addition, the “Herbicidal activity, Weed: Digitaria” value in the assay with Digitaria is 25%. Further, in the assay with Panicum, the “Herbicidal activity, Weed: Panicum” value was determined as 70%. Besides, the “Herbicidal activity, Weed: Brachiaria” value turned out to be 60% in the assay on Brachiaria [1] (200 g active ingredient/ha), 70% in the assay on Brachiaria [1] (300 g active ingredient/ha) and 70% with Brachiaria [1] (400 g active ingredient/ha).
In the case of `CCc1cccc(C)c1N(C(=O)CCl)[C@@H](C)COC` [Met-S, aRS,1'S(-)-N-(1'-methyl-2'-methoxyethyl)-N-chloroacetyl-2-ethyl-6-methylaniline], the results for the “Herbicidal activity, Weed: Brachiaria” value in the assay with Brachiaria [2] (150 g active ingredient/ha) and with Brachiaria [2] (300 g active ingredient/ha) were 20% and 50%, respectively. The “Herbicidal activity, Useful plant: Maize” value with Maize (setting [11]) was found to be 0%; with Maize (setting [12]), 10%; with Maize (setting [13]), 10%. In addition, the “Herbicidal activity, Weed: Euphorbia” value with Euphorbia (setting [11]), with Euphorbia (setting [12]) and with Euphorbia (setting [13]) was 0% throughout. The figures for the “Herbicidal activity, Weed: Abutilon” value in the assay with Abutilon (setting [11]) and in the assay on Abutilon (setting [12]) were 0% and 10%, respectively. Further, the “Herbicidal activity, Weed: Sida” value in the assay with Sida (setting [11]) came to 0%; with Sida (setting [12]), 40%. Moreover, the entries for the “Herbicidal activity, Weed: Xanthium” value with Xanthium (300 g active ingredient/ha) and in the assay with Xanthium (600 g active ingredient/ha) were 0% and 20%, respectively.
Regarding `CCNc1nc(Cl)nc(NC(C)(C)C)n1` [Terb, terbuthylazine], the “Herbicidal activity, Useful plant: Maize” value in the assay on Maize (setting [6]), in the assay on Maize (setting [3]) and with Maize (setting [4]) was 0% in each case. For the same compound, the “Herbicidal activity, Weed: Euphorbia” value turned out to be 40% in the assay with Euphorbia (setting [6]), 70% in the assay with Euphorbia (setting [3]) and 95% in the assay on Euphorbia (setting [4]). Further, the “Herbicidal activity, Weed: Abutilon” value in the assay with Abutilon (setting [3]) turned out to be 30%; in the assay on Abutilon (setting [4]) it was 90%. Besides, the “Herbicidal activity, Weed: Ipomoea” value was 0% with Ipomoea (setting [6]) and 95% in the assay on Ipomoea (setting [4]). Besides, the “Herbicidal activity, Weed: Bidens” value was 0% in the assay with Bidens (125 g active ingredient/ha) and 60% with Bidens (250 g active ingredient/ha). The “Herbicidal activity, Weed: Sesbania” value in the assay on Sesbania (250 g active ingredient/ha) was determined as 80%.

The values above are taken from EP0888055B1, “HERBICIDAL COMPOSITION AND METHOD OF WEED CONTROL” (Novartis AG, priority 1996, dated 1997).
